For experiment [1], the target named is T1, UGT74AF3b (Camellia sinensis, UniProt A0A4S4DWR1).
T1 construct: gene TEA_014443; full-length, N-terminal GST tag (pGEX-4T-1), E. coli BL21(DE3) pLysS, GST-resin purified; Ala at residue 456
Description: glucosyltransferase kinetics (UDP-Glo assay / LC-MS; readout for kinetics not told). To be noted: optimized conditions (optimum pH 8.5, 30 °C); sugar donor not stated for kinetics, presumably UDP-glucose. The class given is biochemical. The text has this:
glucosyltransferase kinetics (UDP-Glo assay / LC-MS; readout for kinetics not told) on UGT74AF3b

Experiment [2] concerns the target T1, UGT74AF3b. Put plainly: relative glycosyltransferase activity. The class given is biochemical. The conditions noted are these: UDP-Glc, UDP-Gal or UDP-GA as sugar donor.

T1 sequence (A0A4S4DWR1 entry or part of it): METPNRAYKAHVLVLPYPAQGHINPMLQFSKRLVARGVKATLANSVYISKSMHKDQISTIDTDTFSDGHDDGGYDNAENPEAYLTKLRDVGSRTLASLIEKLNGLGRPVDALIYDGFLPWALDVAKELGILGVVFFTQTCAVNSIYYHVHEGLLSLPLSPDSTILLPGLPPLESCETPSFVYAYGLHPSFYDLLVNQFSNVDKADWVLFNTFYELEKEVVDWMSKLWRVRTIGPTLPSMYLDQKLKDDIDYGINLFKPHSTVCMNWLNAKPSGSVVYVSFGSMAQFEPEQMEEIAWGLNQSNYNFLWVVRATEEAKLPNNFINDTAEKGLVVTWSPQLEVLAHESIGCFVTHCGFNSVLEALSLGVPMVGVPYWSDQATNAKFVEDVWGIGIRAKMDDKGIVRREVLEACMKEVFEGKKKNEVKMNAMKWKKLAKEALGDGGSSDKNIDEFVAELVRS

Take `CC1=C(O)C(=O)C(C)O1` (centres unmarked) [HDMF, 4-Hydroxy-2,5-dimethylfuran-3(2H)-one]: the Km (usually the substrate concentration at which the rate is half of its maximum) at UGT74AF3b [1] stood at 5.14 ± 1.58 µM. Also, at UGT74AF3b [2], the relative enzymatic activity entry is “The A456V mutant exhibited enhanced glucosylation activity toward HDMF, EHMF, and HMF”.
